Measurements taken from US9387219B2, “Edible composition” (Conopco, Inc., priority 2011, dated 2016).

Legend:
GLUT2 = molecular target: T1, GLUT2 (Homo sapiens, UniProt P11168); experiment: Glucose transport inhibitor cell screening assay, 25 mM D-glucose for 30 minutes (GLUT2 inhibition); assay type: cell-based; conditions: differentiated Caco-2 monolayer, 30 minutes, active at 150 uM
T1 construct: endogenous in cells; host or cells: differentiated Caco-2 cell monolayers (ATCC)
T1 sequence (P11168 1-524): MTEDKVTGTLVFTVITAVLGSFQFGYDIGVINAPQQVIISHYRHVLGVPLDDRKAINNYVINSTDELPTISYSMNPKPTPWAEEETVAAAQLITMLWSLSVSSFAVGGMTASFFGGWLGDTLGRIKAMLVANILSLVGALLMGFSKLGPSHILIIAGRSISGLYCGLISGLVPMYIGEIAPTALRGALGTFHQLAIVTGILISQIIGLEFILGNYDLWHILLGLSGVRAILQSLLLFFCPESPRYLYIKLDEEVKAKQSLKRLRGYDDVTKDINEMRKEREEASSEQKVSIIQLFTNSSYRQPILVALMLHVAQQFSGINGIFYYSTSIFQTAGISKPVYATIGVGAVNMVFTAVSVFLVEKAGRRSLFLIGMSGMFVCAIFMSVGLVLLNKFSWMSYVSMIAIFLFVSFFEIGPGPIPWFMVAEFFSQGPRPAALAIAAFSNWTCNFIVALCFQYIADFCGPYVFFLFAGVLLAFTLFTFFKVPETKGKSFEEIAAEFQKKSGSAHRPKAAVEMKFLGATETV
Method: (§1) Human epithelial colorectal adenocarcinoma (Caco-2) cells were obtained from the American Type Culture Collection (ATCC) and cultured in Growth Medium consisting of Dulbecco's modified Eagle's medium (containing Glutamax-1, 4.5 g/L D-glucose and 25 mM 4-(2-hydroxyethyl)-1-piperazine ethanesulphonic acid (Hepes) (Invitrogen)), 10% foetal bovine serum (Sigma), 1% non-essential amino acids (Invitrogen) and 1 mM sodium pyruvate (Sigma)). The cells were routinely passaged at approximately 80% confluence using TrypLE™ Express Stable Trypsin-Like Enzyme (Invitrogen) to detach the cells, and seeded at approximately 114 cells per mm^2 in fresh tissue culture flasks. Only cells between the passage numbers 45 and 49 were used for experiments.
(§2) Corning® HTS Transwell® 96 well permeable insert supports (Sigma) were collagen coated with 40 μl of 50 μg/ml rat tail collagen type I (BD Biosciences) in 0.02 M acetic acid for one hour at room temperature under sterile conditions. The inserts were washed twice in phosphate buffered saline (PBS (Invitrogen)) and the Caco-2 cells seeded into the inserts at 9.6×10^5 cell/ml (75 μl per insert) in Growth Medium and 30 ml of Growth Medium added to the feeder plate below. The cells were left to attach to the collagen matrix and form monolayers over 48 hours at 37° C., 5% CO2. Both inserts and feeder plate were washed in PBS and the cells incubated with BD Entero-STIM™ Enterocyte Differentiation Medium containing MITO+™ Serum Extender solution (both BD Biosciences), 75 μl per insert and 30 ml in the feeder plate, for a further 48 hours at 37° C., 5% CO2.
(§3) Differentiated cell monolayers were washed gently in Dulbecco's Phosphate Buffered Saline containing CaCl2 and MgCl2 (PBS(+) (Invitrogen)) and the inserts transferred to a new Corning® HTS Transwell®-96 well receiver plate (Sigma). The cells were incubated with fresh PBS(+) (75 μl per insert and 225 μl per well) for 60 minutes at 37° C., 5% CO2. The PBS(+) was gently aspirated and replaced with 75 μl per insert of either 5 mM D-glucose (Sigma)±test active or 25 mM D-glucose±test active in triplicate and 225 μl per well of PBS(+) quickly added to each well. The 5 mM glucose wells and the 25 mM glucose wells were incubated at 37° C., 5% CO2 for 15 minutes and 30 minutes, respectively. Details of all the actives tested are found in table 1. The cell inserts were transferred to a new receiver plate, the supernatant gently aspirated from the cells and replaced with 100 μl of 100 μM of Lucifer Yellow (Sigma) solution to confirm the integrity of the monolayers. 225 μl of PBS(+) was added to each well and incubated at 37° C., 5% CO2 for 1 hour. The cell inserts were then discarded and the permeability of the membranes to Lucifer Yellow checked by measuring the fluorescence of the samples at 485 nm (excitation) and 530 nm (emission) on a Spectramax Gemini EM fluorescence microplate reader.
(§4) The amount of glucose transported across the cell monolayers was measured using a glucose assay based on Invitrogen's Amplex Red Glucose/Glucose oxidase Assay Kit. Briefly, 50 μl of each test sample was transferred to a black sided/clear bottom 96-well plate (Greiner Bio-One) to which 100 μl of reaction buffer (0.5 μl 10 mM Ampliflu Red, 1 μl 10 U/ml Horse Radish peroxidase, 1 μl 100 U/ml glucose oxidase and 97.5 μl PBS (all Sigma)) was added. After 10 minutes incubation at room temperature, the fluorescence of the samples were measured at 530 nm (excitation) and 590 nm (emission) on a Spectramax Gemini EM fluorescence microplate reader and the glucose concentration extrapolated from a standard curve.
(§5) At higher D-glucose concentrations, the SGLT1 transporter becomes saturated and consequently the majority of glucose transport across the monolayer is driven by the low affinity, high capacity GLUT2 transporter that is targeted to the apical membrane only following an initial SGLT1-dependent transport of glucose.

SGLT1 = molecular target: T2, SGLT1 (Homo sapiens, UniProt P13866); experiment: Glucose transport inhibitor cell screening assay, 5 mM D-glucose for 15 minutes (SGLT1 inhibition); assay type: cell-based; conditions: for Class (assigned class of transporter inhibited): assigned from % inhibition at 5 mM and 25 mM D-glucose in Caco-2 cells; for SGLT1 inhibitory activity (in words): Caco-2 cell model
T2 construct: endogenous in cells; host or cells: differentiated Caco-2 cell monolayers (ATCC)
T2 sequence (P13866 1-664): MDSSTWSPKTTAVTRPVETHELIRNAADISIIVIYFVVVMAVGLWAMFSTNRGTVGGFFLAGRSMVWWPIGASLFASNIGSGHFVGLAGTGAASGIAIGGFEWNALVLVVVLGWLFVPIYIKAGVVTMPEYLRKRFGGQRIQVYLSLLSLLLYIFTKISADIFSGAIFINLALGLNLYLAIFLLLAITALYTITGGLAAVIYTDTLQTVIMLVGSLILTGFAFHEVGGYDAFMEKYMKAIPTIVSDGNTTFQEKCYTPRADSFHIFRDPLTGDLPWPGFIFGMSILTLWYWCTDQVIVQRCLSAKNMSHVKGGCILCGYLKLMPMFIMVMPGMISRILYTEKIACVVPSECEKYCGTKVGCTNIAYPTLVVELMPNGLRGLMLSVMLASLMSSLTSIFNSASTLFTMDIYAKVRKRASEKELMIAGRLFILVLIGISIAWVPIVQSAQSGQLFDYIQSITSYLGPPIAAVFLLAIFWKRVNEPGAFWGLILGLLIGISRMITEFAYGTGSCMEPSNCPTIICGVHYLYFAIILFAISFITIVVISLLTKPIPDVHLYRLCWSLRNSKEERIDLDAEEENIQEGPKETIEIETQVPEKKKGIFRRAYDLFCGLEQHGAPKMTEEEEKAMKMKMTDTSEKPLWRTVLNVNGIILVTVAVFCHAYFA
Method: as §1, §2, §3, §4, §5

[1] = differentiated Caco-2 monolayer, 5 mM D-glucose, 15 minutes, active at 300 uM

SMILES | % Glucose Transport inhibition 25 mM (GLUT2) [%] | Class (assigned class of transporter inhibited) (SGLT1) | inhibition at 300 µM (SGLT1; [1]) [%] | inhibition at 150 µM (GLUT2) [%] | SGLT1 inhibitory activity (in words) (SGLT1; 5 mM D-glucose) | % Glucose Transport inhibition 5 mM (SGLT1; [1]) [%]
O=c1cc(-c2ccc(O)cc2)oc2cc(OC3O[C@H](CO)[C@@H](O)[C@H](O)[C@H]3O)cc(O)c12 (stereo partly drawn) [Apigenin-7-glucoside] | 12.81 |  |  |  |  | 
O=c1cc(-c2ccc(O)cc2)oc2cc(O)cc(O)c12 [Apigenin] |  | GLUT2 (GLUT2 inhibitors having ≧20% inhibition at both 5 mM and 25 mM D-glucose levels) | 56.8 | 49.3 |  | 
OC[C@H]1O[C@@H](Oc2cc3c(O)cc(O)cc3[o+]c2-c2ccc(O)c(O)c2)[C@H](O)[C@@H](O)[C@@H]1O [Cyanidin-3-glucoside] |  | SGLT1 |  |  | inhibition of SGLT1 | 
C[C@@H]1O[C@@H](OC[C@H]2O[C@@H](Oc3cc4c(O)cc(O)cc4[o+]c3-c3ccc(O)c(O)c3)[C@H](O)[C@@H](O)[C@@H]2O)[C@H](O)[C@H](O)[C@H]1O [Cyanidin-3-rutinoside] |  | None |  |  | absence of SGLT1 inhibitory activity | 
Oc1cc(O)c2cc(O)c(-c3ccc(O)c(O)c3)[o+]c2c1 [Cyanidin] |  |  | 7.93 | 3.21 |  | 
O=c1c(-c2ccc(O)cc2)coc2c([C@@H]3O[C@H](CO)[C@@H](O)[C@H](O)[C@H]3O)c(O)ccc12 [Daidze in-8-C-glucoside] |  | SGLT1 |  |  | inhibition of SGLT1 | 
O=c1c(-c2ccc(O)cc2)coc2cc(O[C@@H]3O[C@H](CO)[C@@H](O)[C@H](O)[C@H]3O)ccc12 [Daidzein-7-glucoside] | 7.23 | SGLT1 |  |  | inhibition of SGLT1 | 35.03
OC[C@H]1O[C@@H](Oc2cc3c(O)cc(O)cc3[o+]c2-c2cc(O)c(O)c(O)c2)[C@H](O)[C@@H](O)[C@@H]1O [Delphinidin-3-glucoside] |  | SGLT1 |  |  | inhibition of SGLT1 | 
Oc1cc(O)c2cc(O)c(-c3cc(O)c(O)c(O)c3)[o+]c2c1 [Delphinindin] | 15.86 |  |  |  |  | 
O=C1C[C@@H](c2ccc(O)c(O)c2)Oc2cc(O[C@@H]3O[C@H](CO)[C@@H](O)[C@H](O)[C@H]3O)cc(O)c21 [Eriodictiol-7-O-glucoside] | 4.98 | SGLT1 |  |  | inhibition of SGLT1 | 
O=c1c(-c2ccc(O)cc2)coc2cc(O)cc(O)c12 [Genistein] |  | GLUT2 (GLUT2 inhibitors having ≧20% inhibition at both 5 mM and 25 mM D-glucose levels) | 56.5 | 57.7 |  | 
COc1ccc([C@@H]2CC(=O)c3c(O)cc(O)cc3O2)cc1O [Hesperetin] |  | GLUT2 (GLUT2 inhibitors having ≧20% inhibition at both 5 mM and 25 mM D-glucose levels) | 72.3 | 74.4 |  | 
O=c1c(O)c(-c2ccc(O)cc2)oc2cc(O)cc(O)c12 [Kaempferol] |  | GLUT2 (GLUT2 inhibitors having ≧20% inhibition at both 5 mM and 25 mM D-glucose levels) | 26 | 32.4 |  | 
O=c1cc(-c2ccc(O)c(O)c2)oc2cc(O)cc(O)c12 [Luteolin] |  | GLUT2 (GLUT2 inhibitors having ≧20% inhibition at both 5 mM and 25 mM D-glucose levels) | 77.4 | 63.2 |  | 
COc1cc(-c2[o+]c3cc(O)cc(O)c3cc2O[C@@H]2O[C@H](CO)[C@H](O)[C@H](O)[C@H]2O)cc(OC)c1O [Malvidin 3-O-Galactoside] | 10.41 | None |  |  | absence of SGLT1 inhibitory activity | 
COc1cc(-c2[o+]c3cc(O)cc(O)c3cc2O[C@@H]2O[C@H](CO)[C@@H](O)[C@H](O)[C@H]2O)cc(OC)c1O [Malvidin-3-O-glucoside] | 10.91 | SGLT1 |  |  | inhibition of SGLT1 | 
O=c1c(O)c(-c2cc(O)c(O)c(O)c2)oc2cc(O)cc(O)c12 [Myricetin] |  | GLUT2 (GLUT2 inhibitors having ≧20% inhibition at both 5 mM and 25 mM D-glucose levels) | 76.8 | 55 |  | 
O=C1C[C@@H](c2ccc(O)cc2)Oc2cc(O)cc(O)c21 [Naringenin] |  | GLUT2 (GLUT2 inhibitors having ≧20% inhibition at both 5 mM and 25 mM D-glucose levels) | 69 | 57 |  | 
Oc1ccc(-c2[o+]c3cc(O)cc(O)c3cc2O)cc1 [Pelargonidin] |  |  | 4.07 |  |  | 
O=C(CCc1ccc(O)cc1)c1c(O)cc(O)cc1O [Phloretin, reference compound] |  |  |  | 76.1 |  | 
O=C1C[C@@H](c2ccccc2)Oc2cc(O)cc(O)c21 [Pinocembrin] |  | GLUT2 (GLUT2 inhibitors having ≧20% inhibition at both 5 mM and 25 mM D-glucose levels) | 47.7 | 48.1 |  | 
O=c1c(O[C@@H]2O[C@H](CO)[C@@H](O)[C@H](O)[C@H]2O)c(-c2ccc(O[C@@H]3O[C@H](CO)[C@@H](O)[C@H](O)[C@H]3O)c(O)c2)oc2cc(O)cc(O)c12 [Quercetin-3,4′-diglucoside] |  | None |  |  | destroys this inhibitory action | 
OC[C@H]1O[C@@H](Oc2ccc(O)cc2)[C@H](O)[C@@H](O)[C@@H]1O [arbutin] |  |  |  |  | lack of SGLT1 inhibitory activity | 
